Consider one compound from patent US10947242B2, “[1,2,4]triazolo[1,5and#8208;A]pyrimidine compounds as PDE2 inhibitors” (Janssen Pharmaceutica NV, priority 2016, dated 2021).

The target of experiment [1] is T1, Human recombinant PDE3A (hPDE3A) (Homo sapiens, UniProt Q14432).
T1 construct: purchased Scottish Biomedical; host or cells: Sf9 insect cells
Put plainly: In vitro assay PDE3A (SPA, 3H-cAMP hydrolysis).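 Note: the method names PDE3A and the table heading PDE3B.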 The format is biochemical. The essentials:
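Radiometric SPA measuring [3H]-cAMP hydrolysis (0.4 μM cAMP, 2.4 μCi/ml) over 60 min at room temperature, in Tris pH 7.8 buffer with MgCl2 and EGTA, 1% DMSO. Enzyme: recombinant human brain PDE3A expressed in Sf9 cells, used as partially purified lysate. Counts compared with enzyme-free blanks and vehicle controls.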

The target in a further experiment is T2, PDE2A (Rattus norvegicus, UniProt Q01062).
T2 construct: Twenty μm-thick striatal sections were cut; from tissue; host or cells: rat brain, striatal sections
T2 sequence (Q01062 1-928): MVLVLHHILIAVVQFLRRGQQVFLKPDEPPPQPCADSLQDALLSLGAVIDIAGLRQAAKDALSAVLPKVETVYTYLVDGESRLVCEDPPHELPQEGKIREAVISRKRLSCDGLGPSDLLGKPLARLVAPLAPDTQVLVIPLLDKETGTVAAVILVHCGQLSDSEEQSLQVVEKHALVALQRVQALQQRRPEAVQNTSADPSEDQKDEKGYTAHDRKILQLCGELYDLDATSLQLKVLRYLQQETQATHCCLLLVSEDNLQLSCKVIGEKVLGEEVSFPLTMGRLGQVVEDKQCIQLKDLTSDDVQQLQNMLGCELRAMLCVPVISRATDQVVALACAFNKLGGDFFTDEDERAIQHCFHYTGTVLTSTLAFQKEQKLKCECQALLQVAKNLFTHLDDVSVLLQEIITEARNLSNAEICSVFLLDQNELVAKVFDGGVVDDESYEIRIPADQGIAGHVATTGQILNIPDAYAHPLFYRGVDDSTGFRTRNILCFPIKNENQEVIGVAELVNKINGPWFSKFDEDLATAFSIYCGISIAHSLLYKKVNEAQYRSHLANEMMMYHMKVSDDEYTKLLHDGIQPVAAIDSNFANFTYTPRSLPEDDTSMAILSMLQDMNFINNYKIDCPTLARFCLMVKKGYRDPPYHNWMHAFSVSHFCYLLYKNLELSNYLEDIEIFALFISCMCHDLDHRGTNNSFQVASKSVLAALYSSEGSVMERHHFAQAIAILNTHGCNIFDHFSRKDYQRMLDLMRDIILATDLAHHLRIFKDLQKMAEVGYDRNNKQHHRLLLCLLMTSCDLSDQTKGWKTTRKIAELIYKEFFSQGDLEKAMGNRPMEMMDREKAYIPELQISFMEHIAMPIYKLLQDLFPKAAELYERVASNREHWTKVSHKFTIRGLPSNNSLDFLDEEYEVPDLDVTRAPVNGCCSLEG
Kind of experiment: PDE2 occupancy by test compounds, ex-vivo autoradiography with [3H]B-17a. The format is in vivo, Male Wistar rats. To be noted: sc, 10 mg/kg, route SC (subcutaneous), percentage receptor occupancy, ex-vivo autoradiography, striatum.

T1 sequence (Q14432 whole entry): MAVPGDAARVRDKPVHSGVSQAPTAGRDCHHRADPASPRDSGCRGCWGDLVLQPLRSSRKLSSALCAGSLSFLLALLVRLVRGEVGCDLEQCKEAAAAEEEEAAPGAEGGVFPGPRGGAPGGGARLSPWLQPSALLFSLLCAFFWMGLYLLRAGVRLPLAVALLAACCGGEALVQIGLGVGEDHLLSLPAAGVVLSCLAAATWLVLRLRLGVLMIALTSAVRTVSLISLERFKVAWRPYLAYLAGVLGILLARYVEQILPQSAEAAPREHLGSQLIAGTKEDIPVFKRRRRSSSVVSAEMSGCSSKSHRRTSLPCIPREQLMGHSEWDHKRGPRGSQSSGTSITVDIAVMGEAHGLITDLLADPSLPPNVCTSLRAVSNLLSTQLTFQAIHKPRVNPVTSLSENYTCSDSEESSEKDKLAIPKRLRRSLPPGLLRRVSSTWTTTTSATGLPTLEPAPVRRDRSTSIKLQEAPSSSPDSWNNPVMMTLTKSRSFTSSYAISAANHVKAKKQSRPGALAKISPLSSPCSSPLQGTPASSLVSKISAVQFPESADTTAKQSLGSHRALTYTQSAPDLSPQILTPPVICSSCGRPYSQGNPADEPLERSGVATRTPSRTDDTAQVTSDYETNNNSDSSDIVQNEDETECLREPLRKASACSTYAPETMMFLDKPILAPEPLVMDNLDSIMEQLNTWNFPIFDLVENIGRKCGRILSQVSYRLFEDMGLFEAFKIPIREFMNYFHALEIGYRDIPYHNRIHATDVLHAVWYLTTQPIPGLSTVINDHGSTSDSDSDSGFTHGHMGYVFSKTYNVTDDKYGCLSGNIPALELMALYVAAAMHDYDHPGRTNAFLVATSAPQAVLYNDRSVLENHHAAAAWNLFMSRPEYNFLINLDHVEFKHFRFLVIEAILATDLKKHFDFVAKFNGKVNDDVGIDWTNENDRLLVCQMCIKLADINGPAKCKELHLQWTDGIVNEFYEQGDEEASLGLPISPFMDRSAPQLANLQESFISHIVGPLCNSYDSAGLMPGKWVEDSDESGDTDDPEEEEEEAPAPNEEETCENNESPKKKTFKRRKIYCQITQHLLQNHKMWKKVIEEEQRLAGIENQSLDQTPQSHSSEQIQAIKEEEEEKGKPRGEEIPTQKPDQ

For `C[C@@H]1CCN(C(=O)c2ccc3c(ccn3CCF)c2)C[C@H]1c1cc(C(F)F)nc2ncnn12` [Compound 89], in experiment [1] (hPDE3B pIC50, read-out: pIC50 (converted)), the IC50 is 145 nM. The Emax in experiment [1] (read-out: hPDE3B Emax, read-out: Emax) came to 96%. Further, the receptor occupancy at 10 mg/kg on PDE2A turned out to be 88%.
